Source: patent US11628164B2, “Composition containing salsolinol for treating liver cancer” (SUNGSHIN WOMEN'S UNIVERSITY R&DB FOUNDATION, priority 2020, dated 2023)

How the values were obtained:
SK-Hep1 = test: Colony formation experiment; format: cell-based, human
Experimental: Among the human-derived liver cancer cell lines, the SK-Hep1, which is a liver cancer cell lines, is dispensed into 96-wells so as to have a concentration of 1×10^4 cells, and then, the SK-Hep1 is treated once every two or three days so that the salsolinol has a concentration of 25 μM or 50 μM. The salsolinol-treated the SK-Hep1 is further cultured for 3 days under the above-mentioned conditions. After that, the SK-Hep1 is fixed with 4% formaldehyde, stained with crystal violet for 2 hours, and after extraction with an acetic acid, the absorbance (570 nm) is measured. After culturing the SK-Hep1 cells at 1×10^4 cells/well for 24 hours, the SK-Hep1 is treated three times at 48 hour intervals with the salsolinol so as to have a concentration of 25 μM or 50 μM, and then the degree of colony formation is checked (refer to FIG. 2). The colony formation experiment for the SK-Hep11 is repeated a total of 4 times, the statistic process is performed, and comparison and analysis are performed. As a result of the experiment, in the case of being treated with the salsolinol having a concentration of 25 μM, it is confirmed that the colony formation ability of the SK-Hep1 is decreased to a level of 50% compared with the SK-Hep1 not treated with the salsolinol. […]

[1] = tested on: STAT3, pSTAT3, PCNA, 15-PGDH, p53 in SK-Hep1; test: Western blotting of tumor-related genes in SK-Hep1; format: cell-based, human
Experimental: (§1) 5×10^5 cells of Human-derived liver cancer cell lines SK-Hep1 and SNU387 are cultured in a 60 mm culture vessel, the cells are lysed, and proteins are separated through electrophoresis. And after that, western blotting analysis is performed by using a specific antibody. After treatment of the SK-Hep1 and the SNU387 with the salsolinol at different times and concentrations, the cells are washed with PBS, and the cells are scraped off with a scraper. The cells are lysed in a lysis buffer for 1 hour, and after that, centrifuge separation is performed at 13,000 rpm for 15 minutes at 4° C., and only the supernatant is extracted. 20 μg of protein contained in the supernatant is electrophoresed on SDS-polyacrylamide gel, and after that, transferred to a PVDF membrane for 2 hours. The sample reacts with antibodies pSTAT3(#9145), STAT3(#9132), PCNA(#2586), 15-PGDH(cayman No. 160615), p53(sc-126), p53(sc-99), pAKT(#9271), AKT(#9272), Annexin A2(#8235), and GAPDH(sc-32233). The protein is detected by using an enhanced chemiluminascence (ECL) detection solution. As a result of the above-described experiment, it is confirmed that the activity of cells in the liver cancer cell lines SK-Hep1 is decreased by the salsolinol, and particularly, the specificity for the liver cancer cell lines is confirmed. In order to check the correlation between the decrease in the activity of cells of the liver cancer cell lines by the salsolinol and the gene expression, the SK-Hep1 which is a liver cancer cell line and the SNU387 which is a liver cancer cell line are cultured, and the samples are treated with 25 μM of salsolinol d for 72 hours. After the treatment, changes in the expression levels of tumor-related genes such as STAT3, pSTAT3, PCNA, 15-PGDH, and p53 are checked (refer to FIG. 4).

[2] = tested on: STAT3, pSTAT3, PCNA, 15-PGDH, p53 in SNU387; test: Western blotting of tumor-related genes in SNU387; format: cell-based, human; details: SNU387, 25 μM salsolinol, 72 hours
Experimental: as §1

[3] = tested on: Ki-67, 8-OHdG in liver tissue; test: Immunofluorescence staining of liver tissue (Ki-67, 8-OHdG); format: in vivo, C57BL/6 mouse
Experimental: The salsolinol (200 mg/kg) is administered for 6 months through intraperitoneal injection three times per week from the time when the DEN-induced liver cancer mouse model (male) became 7 weeks of age. After the mouse is sacrificed, the experiment is performed.
In the paraffin section slide requested to be manufactured by NORTHUS Co., Ltd., paraffin is removed by using xylene (Duksan, Gyeonggi, Korea). And, after a hydration process with low concentration ethanol (100, 90, 80, and 70% ethanol) at a high concentration, the slide is rinsed twice with running water. Since formaldehyde forms a cross-link between proteins to prevent a primary antibody from binding to the epitope of the antigen, the cross-link is removed by using an antigen retrieval reagent (sigma). After washing the slide thoroughly with running water, and dropping 2% triton for nuclear staining, the slide is left for 45 minutes. After washing the slide thoroughly with running water, blocking proceeds for 1 hour with a PBS solution containing 3% BSA to prevent non-specific binding. Then, after dropping a diluted PBS solution containing 3% BSA diluted with a primary antibody (8-OHdG, Ki-67) (1:500) on the slide, the slide is left at 4° C. for one day. After washing the slide with PBS and dropping a diluted secondary antibody (1:2000) on the slide, the slide is left at 4° C. for 1 hour. After washing the slide with PBS, staining with DAPI (1:200), and dropping 2-3 drops of mounting solution (sigma), the slide is covered with a slide cover. After about a day, the degree of fluorescence staining is checked by using a confocal microscope.
Tumor-related genes Ki-67 and 8-OHdG expressed in the liver tissue of the DEN-induced liver cancer mouse model (male, DEN), the DEN-induced liver cancer mouse model (male, DEN+SAL) administered with the salsolinol, and the normal mouse (male, SAL) administered with the salsolinol are analyzed by using an immunofluorescence measurement method (refer to FIGS. 10 and 11).

[4] = SK-Hep1, 25 μM salsolinol, 72 hours
[5] = normal mouse administered with salsolinol (SAL)

CC1NCCc2cc(O)c(O)cc21 (centres unmarked) [salsolinol, 6,7-dihydroxy-1-methyl-1,2,3,4-tetrahydroisoquinoline]
colony formation ability compared with untreated SK-Hep1 (SK-Hep1; 25 μM salsolinol): 50%
colony formation ability compared with untreated SK-Hep1 (SK-Hep1; 50 μM salsolinol): 20%
15-PGDH expression level [1, 4]: increased
PCNA expression level [1, 4]: slightly decreased
STAT3 expression level [1, 4]: remains constant
p53 expression level [1, 4]: increased
pSTAT3 expression level [1, 4]: decreased
phosphorylation of STAT3 over time ([1]; male-derived liver cancer cell lines, time course after treatment): rapidly increased initially, but it is rapidly decreased after 24 hours
15-PGDH expression level [2]: remains constant
PCNA expression level [2]: rather increased
STAT3 expression level [2]: remains constant
p53 expression level [2]: not changed
pSTAT3 expression level [2]: not decreased
Ki-67 expression ([3]; DEN+SAL liver): not confirmed
8-OHdG expression ([3]; DEN+SAL liver tissue): at a low level
8-OHdG expression [3, 5]: at a low level
Ki-67 expression [3, 5]: not confirmed
